Like-named read-outs stand apart in the source and are kept apart here.
How the values were obtained:
MDA-MB231 cell lines = test: MTT cell viability assay (IC50); assay type: cell-based; conditions: Homo sapiens, MDA-MB-231; MDA-MB231, single dose of treatment, 10^−9 to 10^−4 M, 570 nm absorbance
Method: (§1) HCT 116 colon cancer and MDA-MB231 breast cancer cell lines are used in cell culture experiments.
(§2) Cells were treated with high-glucose DMEM medium (Biosera) supplemented with 10% FBS (Gibco) and 1× penicillin/streptomycin (Multicell). The assay was designed to contain 10,000 cells for each well of 24-well cell culture plates before being treated with inhibitors.
(§3) Compound of formula I was dissolved with DMSO as 20 mM stock. 24 hours later, the solution was diluted in DMEM with 10% FBS and final concentration of vehicle DMSO was 0.5% at maximum. Therefore, the vehicle group included 0.5% DMSO concentration in experiments. Intensive cultivation of cells causes a decrease in proliferation capacity.
The MTT cell viability assay was used to detect values of half-maximal inhibitory concentration (IC50). Different concentrations of compound of formula I ranging between 10^−9 to 10^−4 M were tested on MDA-MB231 cell lines with single dose of treatment. 570 nm absorbance values were recorded and IC50 values were calculated by dose response-inhibition curves and nonlinear regression analysis on Graphpad Prism 8 software. IC50 value of compound of formula I was determined to be 24 μm (FIG. 1).

[1] = tested on: HCT 116 colon cancer and MDA-MB231 breast cancer cell lines; test: MTT cell proliferation assay; assay type: cell-based; conditions: for cytotoxicity at 100 µM: read-out: cell viability decreased
Method: as §1, §2, §3
For proliferation inhibition analysis, cells were seeded in 24 well plates at 1×10^4 cells/well cells overnight without drug treatment. During the cell proliferation experiments, we performed five days of treatment in each cell line and repeated the experiments three times to check each experiment. No significant difference in cell viability was observed after the third day. Therefore, cells with different drug concentrations were treated for two days. After 48 hours, MTT was applied to the cells and incubated at 37° C. for 4 hours, formazan was solubilized with DMSO (Sigma-Aldrich, St. Louis, USA) and absorbance was measured at 570 nm.
Molecule concentration was 100 μM, the lower concentrations were not shown. Vehicle represents the groups treated with only %0,5 DMSO and Untreated represents no molecule treated group. Molecule responses were evaluated by cell viability which is obtained by spectrophotometric analysis of cells upon MTT treatment at 12 h, 24 h, 48 h and 72 h. […] Statistical significance in graphs was determined by comparing each treatment group with DMSO control using ANOVA testing and significance is considered as p<0.001 (FIG. 2).

HCT-116 cells = test: Microscopic evaluation of HCT-116 cells; assay type: cell-based
Description: Cells were photographed and observed under microscope for three days.
As a result, cell viability decreased by 40% at the end of the first day and reached 60% at the end of the third day. Any cell proliferation change and apoptotic cell morphology were not observed in the untreated and vehicle groups. Moreover, differences in cell morphology were also observed.

MDM2 protein = MDM2 protein (Homo sapiens, UniProt Q00987); conditions: MDM2 protein versus natural p53 peptide; cited from earlier work
MDM2 protein, sequence (Q00987 whole entry, species assumed): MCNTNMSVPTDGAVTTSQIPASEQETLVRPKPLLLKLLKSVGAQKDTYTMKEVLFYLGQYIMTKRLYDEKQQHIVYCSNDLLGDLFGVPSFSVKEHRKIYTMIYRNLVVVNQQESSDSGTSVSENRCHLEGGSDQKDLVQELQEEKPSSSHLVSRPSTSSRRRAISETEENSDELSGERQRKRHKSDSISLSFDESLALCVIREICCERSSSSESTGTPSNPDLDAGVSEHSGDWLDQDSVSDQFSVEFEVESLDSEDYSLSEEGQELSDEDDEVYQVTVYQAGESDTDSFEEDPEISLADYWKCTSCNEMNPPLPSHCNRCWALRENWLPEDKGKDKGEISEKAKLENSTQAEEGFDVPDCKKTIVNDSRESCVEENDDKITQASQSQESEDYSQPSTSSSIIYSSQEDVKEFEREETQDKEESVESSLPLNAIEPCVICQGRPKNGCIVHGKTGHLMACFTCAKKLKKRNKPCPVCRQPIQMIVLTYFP

Row | Molecule | IC50 (MDA-MB231 cell lines) [µM] | cell viability compared to vehicle and untreated groups ([1]; 100 μM, 12 h, 24 h, 48 h and 72 h, ANOVA, p<0.001) | cytotoxicity at 100 µM ([1]; end of the first day) [%] | cytotoxicity at 100 µM ([1]; end of the third day) [%] | morphology of apoptotic cells, onset (HCT-116 cells; 100 μM concentration) | apoptotic activity, onset (HCT-116 cells; HCT-116, microscopy) | proliferation and cell structures under microscope (HCT-116 cells; HCT-116, observed for three days, versus vehicle and untreated) | binding affinity relative to natural p53 peptide (MDM2 protein) [fold]
1 | Cc1cc(=O)c(C(=O)NCCc2c[nH]c3ccccc23)nn1-c1cccc(C(F)(F)F)c1 [compound of formula I] | 24 | statistically significant difference | 40 | 60 | cells having the morphology of apoptotic cells were observed starting from the 3rd hour | clear apoptotic activity from the twelfth hour | reduced proliferation and showed apoptotic cell structures | –
2 | MI-319 | – | – | – | – | – | – | – | 500
